Experimental data taken from patent publication US9856225B2, “Substituted phenazines as antimicrobial agents” (University of Florida Research Foundation, Incorporated, priority 2013, dated 2018).
Like-named read-outs stand apart in the source and are kept apart here.

Key:
Format in all cases: cell-based
[1] = test system: Acinetobacter baumannii (ATCC 19606); test: Planktonic growth (OD600) in biofilm inhibition assay; settings: for inhibition of growth at 100 µM: Acinetobacter baumannii, ATCC19606, 24 h, A. baumannii ATCC 19606, * = no growth inhibition at 200 μM, read-out: % Growth Inhibition at 100 μM
Procedure: Each well was inoculated with ˜7×10^6 colony forming units per milliliter (corresponding to an OD600 of 0.01 prepared directly from an overnight culture). A lid was placed on the 96-well plate which was wrapped in suran wrap, placed in a humidifying chamber and incubated under static conditions at 37° C. for 24 hours. Following incubation, the media and planktonic bacteria were then removed from 96-well plates and the wells were then washed with water. The bacterial biofilms within the microtiter wells were stained with 200 μL of an aqueous 0.1% crystal violet solution that was allowed to stand for 10-20 minutes. The crystal violet stain was then removed, the wells were rinsed with water and dried. The crystal violet stain that remained on the inside of the wells (i.e., stained bacterial biofilm) on the inside of the wells was solubilized by the addition of 200 μL ethanol and absorbance was read at OD540 using a spectrophotometer. […] Single data points for all compounds and DMSO controls were tested in two replicate rows in 96-well plates and corresponding absorbance readings were averaged for the quantification of planktonic growth and biofilm formation. Reported percent biofilm inhibition was determined by the comparison of compound treated wells (the average of the two replicate wells) versus vehicle control wells without compound following background subtraction (i.e., an empty, untreated well) and reported from 2 to 4 independent overnight cultures. DMSO was serially diluted at the same concentration as test compounds with a top concentration of 1% v/v.
(§1) The bromophenazines were also evaluated against the Gram-negative bacterium Acinetobacter baumannii in order to identify biofilm modulating small molecules against this emerging pathogen. Acinetobacter baumannii is notorious for its ability to persist as bacterial biofilms on hospital surfaces, giving rise to many multidrug-resistant nosocomial infections. Clinical isolates of A. baumannii have been identified that are resistant to every class of antibiotic clinically used. The bromophenazines were evaluated against Acinetobacter baumannii ATCC 19606 in biofilm inhibition assays. Bromophenazines were allowed to incubate in 96-well plates with Acinetobacter baumannii (˜7×10^6 CFUmL^−1 by adjusting an overnight culture to an OD600˜0.01) for 24 hours at 37° C. using Mueller-Hinton broth followed by spectrophometer readings of each plate to evaluate planktonic growth (OD600) and biofilm formation (OD540 after crystal violet stain of biofilms inside microtiter wells). […] This biofilm inhibition with activation of planktonic growth activity was dose-dependent with bromophenazine 17a (see FIG. 20).

[2] = test system: Acinetobacter baumannii (ATCC 19606) pre-formed biofilm; test: Biofilm dispersion, crystal violet; settings: for percent biofilm dispersion at 100 µM: Acinetobacter baumannii, ATCC19606, 24 h
Procedure: Biofilm Dispersion Protocol for A. baumannii (ATCC 19606): To a 96-well plate was added a volume of 100 μL Mueller-Hinton broth that was inoculated with ˜7×10^6 colony forming units per milliliter (corresponding to an OD600 of 0.01 prepared directly from an overnight culture). Two columns of wells were left blank to serve as our background wells. A lid was placed on the 96-well plate which was wrapped in suran wrap, placed in a humidifying chamber and incubated under static conditions at room temperature for 24 hours to establish bacterial biofilms. Following this initial incubation at room temperature, the media and planktonic bacteria were then removed from 96-well plates and the wells were then washed with water. Fresh medium was then added and series of ten two-fold serial dilutions of text compound were made in the 96-well plate using a multichannel pipette. A lid was then placed on 96-well plate which was then wrapped in suran wrap, placed in a humidifying chamber and incubated under static conditions at 37° C. for 24 hours. Following this second incubation to test compounds against pre-formed biofilms, the media and planktonic bacteria were again removed from 96-well plates and the wells were then washed with water. The bacterial biofilms within the microtiter wells were stained with 200 μL of an aqueous 0.1% crystal violet solution that was allowed to stand for 10-20 minutes. The crystal violet stain was then removed, the wells were rinsed with water and dried. The crystal violet stain that remained on the inside of the wells (i.e., stained bacterial biofilm) on the inside of the wells was solubilized by the addition of 200 μL ethanol and absorbance was read at OD540 using a spectrophotometer. Note: The concentration range tested for each compound was 0.2-100 μM. Single data points for all compounds and DMSO controls were tested in two replicate rows in 96-well plates and corresponding absorbance readings were averaged for the quantification of remaining bacterial biofilms. Reported percent dispersion of biofilms was determined by the comparison of compound treated wells (the average of the two replicate wells) versus vehicle control wells without compound following background subtraction (i.e., an empty, untreated well) and reported from two independent experiments. DMSO was serially diluted at the same concentration as test compounds with a top concentration of 1% v/v.

[3] = test system: Acinetobacter baumannii (ATCC 19606) biofilm; test: Biofilm inhibition, Mueller-Hinton broth, crystal violet; settings: A. baumannii ATCC 19606; for inhibition at 100 µM: Acinetobacter baumannii, ATCC19606, read-out: % Biofilm Inhibition at 100 μM
Procedure: Biofilm Inhibition Protocol for A. baumannii (ATCC 19606): In a 96-well plate, ten two-fold serial dilutions of each compound tested were made from the highest concentration tested (100 μM) in a final volume of 100 μL in Mueller-Hinton broth (one column served as a blank). Each well was inoculated with ˜7×10^6 colony forming units per milliliter (corresponding to an OD600 of 0.01 prepared directly from an overnight culture). A lid was placed on the 96-well plate which was wrapped in suran wrap, placed in a humidifying chamber and incubated under static conditions at 37° C. for 24 hours. Following incubation, the media and planktonic bacteria were then removed from 96-well plates and the wells were then washed with water. The bacterial biofilms within the microtiter wells were stained with 200 μL of an aqueous 0.1% crystal violet solution that was allowed to stand for 10-20 minutes. The crystal violet stain was then removed, the wells were rinsed with water and dried. The crystal violet stain that remained on the inside of the wells (i.e., stained bacterial biofilm) on the inside of the wells was solubilized by the addition of 200 μL ethanol and absorbance was read at OD540 using a spectrophotometer. NOTE: The concentration range tested for each compound was 0.2-100 μM. Single data points for all compounds and DMSO controls were tested in two replicate rows in 96-well plates and corresponding absorbance readings were averaged for the quantification of planktonic growth and biofilm formation. Reported percent biofilm inhibition was determined by the comparison of compound treated wells (the average of the two replicate wells) versus vehicle control wells without compound following background subtraction (i.e., an empty, untreated well) and reported from 2 to 4 independent overnight cultures. DMSO was serially diluted at the same concentration as test compounds with a top concentration of 1% v/v.
as §1

[4] = A. baumannii ATCC 19606, read-out: % Biofilm Dispersion at 100 μM
[5] = read-out: % Biofilm Dispersion at 100 μM, A. baumannii ATCC 19606

Compound | inhibition of growth at 100 µM ([1]; 100 μM) [%] | Biofilm Dispersal Agent? ([2]; A. baumannii ATCC 19606) | percent biofilm dispersion at 100 µM [2, 4] [%] | Phenotype [3] | inhibition at 100 µM [3] [%] | percent biofilm dispersion at 100 µM [2, 5] [%] | increase in planktonic growth ([1]; 100 μM, OD600) [%] | planktonic growth inhibition at 200 μM ([1]; 200 μM)
O=C(OCC(Cl)(Cl)Cl)Oc1c(Br)cc(Br)c2nc3ccccc3nc12 [Compound 27a] | 68 ± 4 | Yes | 38 ± 6 | antibacterial | 99 ± 1 | – | – | –
O=C(OCCc1ccccc1)Oc1c(Br)cc(Br)c2nc3ccccc3nc12 [Compound 8a] | 76 ± 10 | Yes | 32 ± 4 | antibacterial | 97 ± 2 | – | – | –
Cc1ccc(C(=O)Oc2c(Br)cc(Br)c3nc4ccccc4nc23)cc1 [Compound 18a] | -6 ± 6 | No | -1 ± 6 | inactive | 1 ± 5 | – | – | –
O=C(CCCC(=O)Oc1c(Br)cc(Br)c2nc3ccccc3nc12)Oc1c(Br)cc(Br)c2nc3ccccc3nc12 [Compound 5a] | -1 ± 6 | Yes | 30 ± 3 | – | 59 ± 11 | – | – | –
O=C(Oc1c(Br)cc(Br)c2nc3ccccc3nc12)c1cccc([N+](=O)[O-])c1 [Compound 15a] | 3 ± 4 | Yes | 36 ± 2 | – | 25 ± 6 | – | – | –
Oc1c(Br)cc(Br)c2nc3ccccc3nc12 [Compound 11, 2,4-Dibromophenazin-1-ol] | 86 ± 3 | Yes | – | antibacterial | 98 ± 1 | 53 to 57 | – | –
CC(=O)Oc1c(Br)cc(Br)c2nc3ccccc3nc12 [Compound 21, 2,4-Dibromophenazin-1-yl acetate] | 83 ± 2 | Yes | – | antibacterial | 98 ± 1 | 53 to 57 | – | –
COC(=O)Oc1c(Br)cc(Br)c2nc3ccccc3nc12 [Compound 28a] | 92 ± 1 | Yes | 53 to 57 | antibacterial | 99 ± 1 | – | – | –
O=C(Oc1c(Br)cc(Br)c2nc3ccccc3nc12)c1ccccc1 [Compound 23, 2,4-Dibromophenazin-1-yl benzoate] | -13 ± 7 | No | – | – | 51 ± 6 | -1 ± 6 | ~15 | did not inhibit planktonic growth
O=C(Oc1c(Br)cc(Br)c2nc3ccccc3nc12)c1ccco1 [Compound 23a] | 80 ± 1 | No | 17 ± 14 | antibacterial | 86 ± 12 | – | – | –
O=C(Oc1c(Br)cc(Br)c2nc3ccccc3nc12)c1ccc(Br)cc1 [Compound 12a] | 3 ± 3 | No | 5 ± 12 | – | 34 ± 4 | – | – | –
O=C(Oc1c(Br)cc(Br)c2nc3ccccc3nc12)c1ccc(Cl)cc1 [Compound 14a] | 2 ± 3 | No | 7 ± 2 | – | 25 ± 3 | – | – | –
CCC(=O)Oc1c(Br)cc(Br)c2nc3ccccc3nc12 [Compound 4a] | 82 ± 1 | Yes | 53 to 57 | antibacterial | 99 ± 1 | – | – | –
